Laboratory results reported in patent US10201510B2, “Compositions and methods for treatment of neurological symptoms associated with alcohol-withdrawal and for convulsive seizure” (Oregon Health & Science University, priority 2005, dated 2019).
pIC50: −log10 of the molar value.

Key:
[1] = molecular target: T1, neuronal voltage-gated, L-type (Cav1.3) α1D subunit Ca^2+ channel (Rattus norvegicus, UniProt P27732); assay: KCl-induced Ca^2+ signaling in fura-2 loaded PC12 cells; type: cell-based
T1 construct: KCl-induced intracellular Ca^2+ signaling in non-NGF treated PC12 cells loaded with fura-2; endogenous in cells; host or cells: PC12 cells (non-NGF treated)
From the text: According to particular aspects of the present invention, the alcohol group is essential for activity. Additionally, the activity of farnesol metabolites on neuronal voltage-gated L-type Ca^2+ channels was investigated. […] The Ca^2+ channel activity is expressed as % inhibition of KCl-induced intracellular Ca^2+ signaling in non-NGF differentiated PC12 cells loaded with fura-2 (see Materials and Methods under Example 2). The assayed molecules are: FPP—farnesyl pyrophosphate; FOH—all-trans farnesol; FCHO—all-trans farnesal; and FCOOH—all-trans farnesoic acid (prepared by Dr. McDougal).
(§1) To identify compounds with enhanced L-type Ca^2+ channel blocker activity, several compounds were either purchased or synthesized, and then tested for their ability to inhibit: (1) KCl-induced contraction in isolated arteries; (2) KCl-induced Ca^2+ signaling in fura-2 loaded arteries; and (3) KCl-induced Ca^2+ signaling in fura-2 loaded PC12 cells, all using art-recognized methods established in the applicants' laboratories (Roullet, 1993, 1994, 1995, 1997; De Lima, 1999). Arteries express smooth muscle voltage-gated, L-type (Cav1.2 or α1C subunit) Ca^2+ channels, whereas PC12 cells constitutively express the neuronal voltage-gated, L-type (Cav1.3) α1D subunit (Ertel, 2000).
Ca^2+ channel activity is expressed as % inhibition of KCl-induced intracellular Ca^2+ signaling in non-NGF treated PC12 cells loaded with fura-2.

[2] = tested on: withdrawal seizures in alcohol-dependent mice; assay: Predicted anti-seizure activity; type: in vivo, mouse; parameters: key: la = long-acting; The ++ farnesol activity was arbitrary; settings: for Predicted anti-seizure activity: based on effect on L-type Ca^2+ channels, CLogP and reversibility or ADH-FolDH recognition; for Predicted anti-seizure activity: long-acting (la): duration flag in brackets
WSP1 mice = assay: Acute ethanol withdrawal HIC scoring in WSP1 mice; type: in vivo, mouse
Procedure: experiments were conducted in two mouse strains: […], 1994; Crabbe & […], in preparation), but are sometimes preferred to the WSP1 mice for the screening of anti-AWS drugs, because of their lower basal level of convulsions (in the absence of alcohol). […] Immediately after the hour-7 time point HIC score (a time of maximal withdrawal in this strain), animals were injected with either 200 mg/kg farnesol (suspension in saline containing 3 g/l bovine serum albumin) or vehicle, and scored 8, 16, 24, 32, 40, 48 and 56 minutes later using a scale from 0 to 7 (Crabbe, 1991; scoring scale shown in TABLE 1). The time course was then resumed (animals were scored at hour 8, etc.).

DBA/2J mice = type: in vivo, mouse
Procedure: experiments were conducted in two mouse strains: Withdrawal Seizure Prone replicate 1 (WSP1); and DBA/2J. WSP1 mice have been selectively bred for their high sensitivity to ethanol and enhanced expression of alcohol withdrawal seizures (Kosobud, 1995; Metten, 1996). DBA/J2 mice also have pronounced alcohol withdrawal symptoms following either chronic treatment or a single injection of a hypnotic dose of alcohol (Crabbe, 1983; Metten, 1994; Crabbe & Metten, in preparation), but are sometimes preferred to the WSP1 mice for the screening of anti-AWS drugs, because of their lower basal level of convulsions (in the absence of alcohol).
DBA/2J mice (males and females; mean BW=23 g; n=44) were injected intra peritoneally (i.p.) with a loading dose of 1.5 g/kg ethanol (20% v/v saline solution) and with 68.1 mg/kg pyrazole hydrochloride, and then placed for 72 h into inhalation chambers (3-4 animals/cage) set at 5 mg ethanol/L air (Guppy, 1995; Crabbe, 1998). The animals were removed from the chambers after 24 and 48 h, and re-injected with pyrazole. The pyrazole injections are necessary to reduce mortality and heterogeneity in withdrawal reactions (Goldstein, 1972). A second group of animals matched for BW and sex (n=32), were housed under normal (‘air-breathing’) conditions and served as pyrazole-injected controls. All animals had free access to food and water and were housed with a 12 hr day-night light cycle. Upon withdrawal from the chambers (t=0), body weight was determined and a tail blood sample was collected for the determination of blood alcohol concentration (BEC, alcohol-treated animals only; Crabbe, 1998). […] Injections were made either 3 hours (GROUP A) or 6 hours (GROUP B) after withdrawal (approximately half of the animals were used in each group). These time points were chosen to precede peak withdrawal (GROUP A at 3 hours) as it begins to ascend above control levels to determine whether farnesol would prevent withdrawal, and to treat withdrawal at its peak (GROUP B at 6 hours). HICs were scored hourly until injections (0 to 3 h for GROUP A and 0 to 6 h for GROUP B). Immediately after HIC scoring at the hour-3 or hour-6 time points, the animals were injected with farnesol or vehicle, and scored 10, 20, 30 and 40 minutes later. The hourly scoring was then resumed at either 4 hours or 7 hours, and continued to the 10-hour time point.

[3] = molecular target: T1, neuronal voltage-gated, L-type (Cav1.3) α1D subunit Ca^2+ channel; settings: PC12 cells; cited from earlier work
[4] = molecular target: T2, voltage-gated L-type Ca^2+ channels (Homo sapiens, UniProt Q13936); settings: cited from earlier work
T2 construct: host or cells: arteries / vascular smooth muscle cells

[5] = molecular target: T3, N-type Ca^2+ channel (α1B) (Homo sapiens, UniProt Q00975); settings: cited from earlier work
T3 construct: host or cells: HEK cells

[6] = molecular target: T4, P/Q-type Ca^2+ channels (α1A) (Homo sapiens, UniProt O00555); settings: micromolar concentration; cited from earlier work
T4 construct: host or cells: HEK cells

[7] = molecular target: T5, R-type Ca^2+ channels (α1E) (Homo sapiens, UniProt Q15878); settings: micromolar concentration; cited from earlier work
T5 construct: host or cells: HEK cells

[8] = molecular target: T6, cardiac L-type Ca^2+ channels (α1C) (Homo sapiens, UniProt Q13936); settings: micromolar concentration; cited from earlier work
T6 construct: host or cells: HEK cells

[9] = tested on: pentylenetetrazole-induced seizures; settings: in vivo; cited from earlier work
L-type Ca^2+ channel = molecular target: T7, L-type Ca^2+ channel (Mus musculus, UniProt Q01815); assay: Reversibility of inhibition of L-type Ca^2+ channel mediated arterial contraction after wash-out
T7 construct: KCl-induced contraction in isolated arteries; from tissue; host or cells: mouse mesenteric arteries
T7 sequence (Q01815 whole entry): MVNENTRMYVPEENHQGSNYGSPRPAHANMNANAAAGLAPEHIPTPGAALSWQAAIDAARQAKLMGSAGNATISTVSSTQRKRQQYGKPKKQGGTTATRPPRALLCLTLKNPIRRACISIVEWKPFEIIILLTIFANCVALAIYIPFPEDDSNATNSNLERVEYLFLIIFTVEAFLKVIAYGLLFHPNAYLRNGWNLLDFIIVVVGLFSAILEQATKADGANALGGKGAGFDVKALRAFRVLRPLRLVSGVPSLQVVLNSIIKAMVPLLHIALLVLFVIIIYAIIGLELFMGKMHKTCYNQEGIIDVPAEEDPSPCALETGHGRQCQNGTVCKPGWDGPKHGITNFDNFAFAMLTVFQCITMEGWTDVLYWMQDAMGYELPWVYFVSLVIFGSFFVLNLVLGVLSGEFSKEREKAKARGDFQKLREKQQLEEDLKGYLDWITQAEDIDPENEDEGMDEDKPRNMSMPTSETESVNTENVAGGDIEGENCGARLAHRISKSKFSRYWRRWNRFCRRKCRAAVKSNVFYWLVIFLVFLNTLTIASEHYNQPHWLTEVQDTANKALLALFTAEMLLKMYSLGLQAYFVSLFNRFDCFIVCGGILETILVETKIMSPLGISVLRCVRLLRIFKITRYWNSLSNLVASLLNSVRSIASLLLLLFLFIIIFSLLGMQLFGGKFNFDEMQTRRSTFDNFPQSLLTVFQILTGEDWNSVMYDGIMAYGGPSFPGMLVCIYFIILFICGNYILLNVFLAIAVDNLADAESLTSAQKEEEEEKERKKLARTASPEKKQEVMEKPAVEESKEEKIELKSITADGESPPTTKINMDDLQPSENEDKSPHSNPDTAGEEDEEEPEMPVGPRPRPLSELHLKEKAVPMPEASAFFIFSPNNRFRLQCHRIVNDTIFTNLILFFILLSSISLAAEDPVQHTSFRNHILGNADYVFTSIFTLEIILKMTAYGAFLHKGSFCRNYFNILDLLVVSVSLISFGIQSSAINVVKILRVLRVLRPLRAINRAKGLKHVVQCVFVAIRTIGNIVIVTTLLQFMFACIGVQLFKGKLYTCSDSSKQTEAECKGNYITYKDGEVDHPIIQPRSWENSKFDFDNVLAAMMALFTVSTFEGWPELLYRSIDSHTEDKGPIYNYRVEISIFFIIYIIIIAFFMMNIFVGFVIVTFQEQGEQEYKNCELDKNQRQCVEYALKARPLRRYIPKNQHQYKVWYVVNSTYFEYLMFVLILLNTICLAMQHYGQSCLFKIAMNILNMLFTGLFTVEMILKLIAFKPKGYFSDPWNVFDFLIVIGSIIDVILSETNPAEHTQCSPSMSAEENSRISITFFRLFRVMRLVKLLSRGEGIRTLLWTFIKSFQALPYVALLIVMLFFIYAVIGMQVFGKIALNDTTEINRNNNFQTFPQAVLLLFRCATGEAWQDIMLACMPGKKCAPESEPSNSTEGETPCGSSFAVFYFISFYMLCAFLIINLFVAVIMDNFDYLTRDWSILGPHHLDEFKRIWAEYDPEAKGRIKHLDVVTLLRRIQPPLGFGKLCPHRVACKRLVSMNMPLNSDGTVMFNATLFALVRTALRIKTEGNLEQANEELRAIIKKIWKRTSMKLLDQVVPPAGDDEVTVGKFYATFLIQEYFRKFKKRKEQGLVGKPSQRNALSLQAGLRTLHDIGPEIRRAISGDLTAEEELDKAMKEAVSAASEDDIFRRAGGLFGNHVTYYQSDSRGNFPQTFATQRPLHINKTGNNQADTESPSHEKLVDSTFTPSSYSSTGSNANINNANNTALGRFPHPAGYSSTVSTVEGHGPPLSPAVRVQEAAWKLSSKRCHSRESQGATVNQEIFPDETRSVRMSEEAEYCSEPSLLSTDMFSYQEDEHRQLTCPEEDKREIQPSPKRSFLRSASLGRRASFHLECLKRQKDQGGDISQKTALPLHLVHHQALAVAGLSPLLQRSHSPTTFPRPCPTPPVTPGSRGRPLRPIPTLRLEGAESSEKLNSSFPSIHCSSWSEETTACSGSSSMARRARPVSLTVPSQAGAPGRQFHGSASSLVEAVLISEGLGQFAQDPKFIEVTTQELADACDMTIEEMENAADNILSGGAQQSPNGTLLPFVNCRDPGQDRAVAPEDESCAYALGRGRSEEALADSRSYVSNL
T7 sequence (P54285 whole entry partner): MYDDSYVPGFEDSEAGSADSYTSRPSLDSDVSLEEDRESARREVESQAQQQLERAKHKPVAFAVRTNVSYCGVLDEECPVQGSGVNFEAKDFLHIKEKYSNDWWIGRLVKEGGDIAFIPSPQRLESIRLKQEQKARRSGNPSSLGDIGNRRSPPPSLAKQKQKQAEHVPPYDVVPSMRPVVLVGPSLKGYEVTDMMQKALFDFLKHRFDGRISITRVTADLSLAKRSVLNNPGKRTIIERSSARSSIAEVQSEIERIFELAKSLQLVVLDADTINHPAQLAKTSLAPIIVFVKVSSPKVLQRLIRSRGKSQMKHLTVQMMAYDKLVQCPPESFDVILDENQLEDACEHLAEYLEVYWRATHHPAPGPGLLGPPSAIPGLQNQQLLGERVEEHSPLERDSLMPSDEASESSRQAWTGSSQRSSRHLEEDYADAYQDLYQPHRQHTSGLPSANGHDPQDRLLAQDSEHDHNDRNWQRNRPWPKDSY
T7 sequence (O08532 25-956 partner limits assumed): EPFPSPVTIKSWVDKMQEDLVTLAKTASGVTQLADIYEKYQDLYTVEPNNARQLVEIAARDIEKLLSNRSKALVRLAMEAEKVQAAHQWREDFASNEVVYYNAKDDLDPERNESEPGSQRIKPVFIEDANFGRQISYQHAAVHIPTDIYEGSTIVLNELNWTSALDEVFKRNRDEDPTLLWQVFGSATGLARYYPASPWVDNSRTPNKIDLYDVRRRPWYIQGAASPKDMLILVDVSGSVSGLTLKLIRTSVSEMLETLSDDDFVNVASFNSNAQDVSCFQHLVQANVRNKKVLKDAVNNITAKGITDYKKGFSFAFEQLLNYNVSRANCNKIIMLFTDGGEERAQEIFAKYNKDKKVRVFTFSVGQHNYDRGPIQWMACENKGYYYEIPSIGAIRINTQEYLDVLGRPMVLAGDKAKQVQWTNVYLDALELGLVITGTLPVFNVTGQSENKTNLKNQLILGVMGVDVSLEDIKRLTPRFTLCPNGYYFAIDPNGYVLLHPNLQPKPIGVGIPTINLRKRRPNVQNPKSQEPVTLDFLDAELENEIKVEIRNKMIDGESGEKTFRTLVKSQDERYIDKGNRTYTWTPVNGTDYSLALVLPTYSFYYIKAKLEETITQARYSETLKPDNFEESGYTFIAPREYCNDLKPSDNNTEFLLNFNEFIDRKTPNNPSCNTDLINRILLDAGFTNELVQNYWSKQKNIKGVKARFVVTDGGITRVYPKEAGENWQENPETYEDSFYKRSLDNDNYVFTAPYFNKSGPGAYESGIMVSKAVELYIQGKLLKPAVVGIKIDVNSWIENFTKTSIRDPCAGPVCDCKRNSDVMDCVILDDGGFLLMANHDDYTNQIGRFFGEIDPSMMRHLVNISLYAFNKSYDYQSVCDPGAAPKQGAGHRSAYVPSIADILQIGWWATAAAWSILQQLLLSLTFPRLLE
T7 sequence (O08532 957-1103 partner limits assumed): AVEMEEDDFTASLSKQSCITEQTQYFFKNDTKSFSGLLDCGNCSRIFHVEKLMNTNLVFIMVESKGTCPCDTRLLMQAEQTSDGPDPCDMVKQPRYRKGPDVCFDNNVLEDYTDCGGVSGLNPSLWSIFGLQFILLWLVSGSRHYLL
Procedure: (§2) Contractions obtained after 30 min. incubation with the test compounds (left portion of graph), and after a 60-min. wash-out (right portion of graph).
(§3) Moreover, farnesylamine is likely to be metabolized through pathways different from those involved in farnesol clearance.

[10] = molecular target: T8, smooth muscle voltage-gated, L-type (Cav1.2 or α1C subunit) Ca^2+ channels (Mus musculus, UniProt Q01815); assay: KCl-induced contraction in isolated arteries; settings: FIG. 5 / FIG. 6 (25 μM)
T8 construct: KCl-induced contraction in isolated arteries; from tissue; host or cells: mouse mesenteric arteries
T8 sequence (Q01815 whole entry): as the sequence (Q01815 whole entry) above
T8 sequence (P54285 whole entry partner): as the sequence (P54285 whole entry partner) above
T8 sequence (O08532 25-956 partner limits assumed): as the sequence (O08532 25-956 partner limits assumed) above
T8 sequence (O08532 957-1103 partner limits assumed): as the sequence (O08532 957-1103 partner limits assumed) above
Procedure: as §2, §1

[11] = molecular target: T9, human recombinant monoamine oxidase A (Homo sapiens, UniProt P21397); assay: Monoamine oxidase substrate test; type: in vitro ADME; settings: rat liver mitochondrial membranes and human recombinant monoamine oxidase A and B
T9 sequence (P21397 1-527): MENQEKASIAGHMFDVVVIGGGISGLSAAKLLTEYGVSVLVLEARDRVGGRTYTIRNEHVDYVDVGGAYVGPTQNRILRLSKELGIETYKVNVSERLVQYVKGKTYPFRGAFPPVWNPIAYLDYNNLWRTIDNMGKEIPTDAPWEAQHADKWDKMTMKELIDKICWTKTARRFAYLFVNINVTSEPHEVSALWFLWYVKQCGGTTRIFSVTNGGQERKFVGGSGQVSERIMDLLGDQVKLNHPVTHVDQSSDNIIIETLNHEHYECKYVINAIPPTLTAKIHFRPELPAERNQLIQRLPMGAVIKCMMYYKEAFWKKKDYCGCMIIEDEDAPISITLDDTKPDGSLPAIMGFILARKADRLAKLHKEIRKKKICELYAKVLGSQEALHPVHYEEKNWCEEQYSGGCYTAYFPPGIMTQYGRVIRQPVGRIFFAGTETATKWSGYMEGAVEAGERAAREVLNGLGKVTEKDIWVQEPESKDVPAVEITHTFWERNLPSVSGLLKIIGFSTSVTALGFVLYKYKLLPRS
From the text: as §3

[12] = molecular target: T10, N-type Ca^2+ channel (α1B subunit) (Homo sapiens, UniProt Q00975); assay: Patch-clamp on HEK cells transfected with human α1B (Cav2.2) subunits; type: cell-based; settings: at 5 min; Hp=−100 mV; 20 mM Ba^2+
T10 construct: expressed in transfected cells; host or cells: HEK cells
Procedure: FIGS. 4A and 4B show neuronal (α1D subunit) L-type Ca^2+ channel (Ca^2+ signaling in fura-2 loaded PC12 cells) (FIG. 4A); on neuronal (α1B subunit) N-type Ca^2+ channel (α1B-transfected HEK cells; as in Roullet, 1999) (FIG. 4B). Current-voltage relationship (IV) recording conditions were: holding potential (hp)=−100 mV; 20 mM Ba^2+. Inhibition of N-type currents was ˜90% at 5 min.
Experiments (FIG. 4) using patch-clamp techniques and HEK cells transfected with human α1B (Cav2.2) subunits further indicate that, like farnesol, retinol also blocks N-type calcium channels. FIGS. 4A and 4B show, according to preferred aspects of the present invention, the effect of all-trans retinol on: neuronal (α1D subunit) L-type Ca^2+ channel (Ca^2+ signaling in fura-2 loaded PC12 cells) (FIG. 4A); an on neuronal (α1B subunit) N-type Ca^2+ channel (α1B-transfected HEK cells; as in Roullet, 1999) (FIG. 4B). IV recording conditions were: Hp=−100 mV; 20 mM Ba^2+. Inhibition of N-type currents was ˜90% at 5 min.

ADH = settings: cited from earlier work

CC(C)=CCC/C(C)=C/CC/C(C)=C/CO [All-trans farnesol, (2E,6E)-3,7,11-trimethyldodeca-2,6,10-trien-1-ol]
block of KCl-induced Ca^2+ signaling ([1]; PC12 cells in culture, n=3/group, FIG. 3): 65% | Predicted anti-seizure activity [2]: ++ | reduction in peak ethanol withdrawal (WSP1 mice; 200 mg/kg): ~56% | peak withdrawal effect (HIC score) (WSP1 mice; 200 mg/kg after hour 7, average of 24, 32 and 40 minute scores, scale 0 to 7): 2.67±0.29 | time point of maximum effect (WSP1 mice; 200 mg/kg, after injection at hour 7): 32 min | effect on basal HICs in naïve WSP1 mice (WSP1 mice; 200 mg/kg, preliminary experiments): tended to reduce basal HICs | Percent seizure reduction, GROUP A (DBA/2J mice; 300 mg/kg i.p., injected 3 hours after withdrawal): 99% | Percent seizure reduction, GROUP B (DBA/2J mice; 300 mg/kg i.p., injected 6 hours after withdrawal): 78% | effect on HIC scores in ‘air-breathing’ animals (DBA/2J mice; 300 mg/kg i.p., pyrazole-injected controls): no significant effect | effect on HICs in withdrawing animals, 50 mg/kg (DBA/2J mice; at 50 mg/kg, worded "Preferably"): no effect | effect on HICs in withdrawing animals, 300 mg/kg (DBA/2J mice; dose of 300 mg/kg): suppresses almost completely | death after injections (DBA/2J mice; mouse, in vivo): No death | duration of the farnesol effect (DBA/2J mice; mouse, in vivo): approximately 1 hour | toxicity of the dose inducing complete seizure suppression (DBA/2J mice; mouse, in vivo): non toxic | activity on neuronal L-type Ca^2+ channels (literature / prior studies) [3]: inhibits | pIC50 ([4]; reversible and dose-dependent, read-out: IC50, effect on arteries): ~5.70 | block of the N-type channel ([5]; at 250 nM farnesol, typical neuronal resting membrane potential): ~50% | activity on N-type Ca^2+ channels ([5]; micromolar concentration): inhibits | activity on P/Q-type Ca^2+ channels [6]: inactive | activity on R-type Ca^2+ channels [7]: inactive | activity on cardiac L-type Ca^2+ channels [8]: inhibits | prevention of pentylenetetrazole-induced seizures [9]: not prevent

CC(C)=CCC/C(C)=C/CC/C(C)=C/CN [Farnesylamine, (2E,6E)-3,7,11-trimethyldodeca-2,6,10-trien-1-amine]
reversibility of effect compared with farnesol (L-type Ca^2+ channel): relatively less reversible | inhibition at 25 µM (L-type Ca^2+ channel; 25 μM, 30 min incubation, 60-min. wash-out, read-out: inhibition of arterial contraction still observed after wash-out): ~80% | activity on KCl-induced arterial contraction [10]: more potent inhibitor of arterial contractions than farnesol | Predicted anti-seizure activity: long-acting (la) [2]: la | substrate for monoamine oxidase [11]: specific substrate for monoamine oxidase A

CC1=C(/C=C/C(C)=C/C=C/C(C)=C/CO)C(C)(C)CCC1 [Retinol, (2E,4E,6E,8E)-3,7-dimethyl-9-(2,6,6-trimethylcyclohex-1-enyl)nona-2,4,6,8-tetraen-1-ol]
reversibility of effect compared with farnesol (L-type Ca^2+ channel): significantly less reversible | pIC50 ([1]; read-out: IC50 on L-type Ca^2+ channels): 5.30 | Inhibition of N-type currents [12]: ~90% | Predicted anti-seizure activity [2]: ++ | Predicted anti-seizure activity: long-acting (la) [2]: la | activity on neuronal L-type Ca^2+ channels (literature / prior studies) [3]: blocks efficiently | metabolism by class IV ADH (ADH): metabolized by class IV ADH | activity on Ca^2+ channels / smooth muscle L-type channels (literature / prior studies) [4]: blocks efficiently
